Reference: ChEMBL document CHEMBL6114982, “Structural optimization and characterization of highly potent and selective STAT3 inhibitors for the treatment of triple negative breast cancer” (Eur J Med Chem, 2025)
Calls of active or inactive are those of the source. The calls are words filed in the database; no cut-off is given here.

Tests used:
[1] = target: T1, Signal transducer and activator of transcription 3 (Homo sapiens, UniProt P40763); assay: Inhibition of STAT3 phosphorylation at Tyr705 residue in human BT-549 cells at 0.1 uM by Western blot analysis; assay type: cell-based; settings: time 8-48 hrs
T1 sequence (P40763 whole entry): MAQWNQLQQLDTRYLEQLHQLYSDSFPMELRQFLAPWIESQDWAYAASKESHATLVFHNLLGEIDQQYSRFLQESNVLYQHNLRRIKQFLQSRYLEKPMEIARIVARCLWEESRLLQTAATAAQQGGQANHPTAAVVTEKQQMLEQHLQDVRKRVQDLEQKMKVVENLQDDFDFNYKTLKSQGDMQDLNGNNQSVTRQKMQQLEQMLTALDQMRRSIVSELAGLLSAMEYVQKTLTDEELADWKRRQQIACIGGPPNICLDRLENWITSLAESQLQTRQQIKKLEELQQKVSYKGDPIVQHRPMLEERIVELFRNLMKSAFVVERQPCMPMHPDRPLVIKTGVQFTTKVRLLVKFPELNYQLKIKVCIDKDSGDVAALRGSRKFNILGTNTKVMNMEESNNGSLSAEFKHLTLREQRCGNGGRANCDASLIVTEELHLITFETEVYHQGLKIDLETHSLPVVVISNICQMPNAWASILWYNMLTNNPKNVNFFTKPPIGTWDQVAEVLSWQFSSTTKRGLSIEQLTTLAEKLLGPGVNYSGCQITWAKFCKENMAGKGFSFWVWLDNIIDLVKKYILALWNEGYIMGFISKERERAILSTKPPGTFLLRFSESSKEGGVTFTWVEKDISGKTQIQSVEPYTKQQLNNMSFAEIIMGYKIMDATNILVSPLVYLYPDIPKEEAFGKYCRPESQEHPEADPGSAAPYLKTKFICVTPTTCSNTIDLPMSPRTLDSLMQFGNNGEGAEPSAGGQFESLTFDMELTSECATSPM

BT-549 [2] = assay: Downregulation of CD44 expression in human BT-549 cells by Western blot analysis; assay type: functional, cell-based
MDA-MB-231 [3] = assay: Effect on STAT1 phosphorylation level in human MDA-MB-231 cells at 0.05 to 0.5 uM measured after 48 hrs by Western blot analysis; assay type: functional, cell-based; settings: dose 0.05-0.5 µM
BT-549 [4] = assay: Downregulation of STAT3 phosphorylation level in human BT-549 cells preincubated for 48 hrs followed by IL-6 addition and measured after 2 hrs by Western blot analysis; assay type: functional, cell-based; settings: dose 0.05-0.5 µM, time 50.0 hrs
BT-549 [5] = assay: Inhibition of colony formation in human BT-549 cells at low concentration measured after 14 days by crystal violet staining based analysis; assay type: functional, cell-based; settings: time 14.0 day
MDA-MB-231 [6] = assay: Inhibition of cell migration in human MDA-MB-231 cells assessed as reduction in wound closure proportion at 0.05 to 0.5 uM incubated for 24 hrs by inverted microscopic analysis; assay type: functional, cell-based; settings: dose 0.05-0.5 µM
[7] = Half life in female BALB/c nude mouse administered as iv dose; assay type: ADME, organism-based; settings: in vivo
[8] = Toxicity in female BALB/c nude mouse assessed as effect on spleen at 10 to 20 mg/kg, iv measured after 30 days by H and E staining based analysis; assay type: organism-based; settings: in vivo, 720 h, dose 10-20 mg/kg, time 30 day
[9] = Toxicity in female BALB/c nude mouse assessed as effect on lung at 10 to 20 mg/kg, iv measured after 30 days by H and E staining based analysis; assay type: organism-based; settings: in vivo, 720 h, dose 10-20 mg/kg, time 30 day
[10] = target: T1, Signal transducer and activator of transcription 3; assay: Inhibition of STAT3 in human MDA-MB-231 cells assessed as downregulation of SPRY1 level; assay type: cell-based

inhibition [1]: Time-dependent-effect
half-life [7]: 23 h
inhibition [10]: Active
SMILES: COc1cccc(C(=O)Nc2sc3c(c2C#N)CCN(C(=O)Nc2ccccc2OC)C3)c1
Activity (BT-549 [2]): Active
Activity (MDA-MB-231 [3]): inactive
Activity (BT-549 [4]): Dose-dependent-effect
inhibition (BT-549 [5]): Active; Compound Showed Robust Inhibition Compared To Positive Control
inhibition (MDA-MB-231 [6]): Active
Activity [8]: Non-toxic
Activity [9]: Non-toxic
